Measurements taken from the METLIN SMRT retention time set (Domingo-Almenara et al. 2019).

Assay: gradient 5% acetonitrile 3 min, to 50% in 2 min, to 85% in 15 min, held 3 min, 100 µL/min
Conditions: column: Zorbax Extend-C18 2.1 x 50 mm; eluents: water / acetonitrile, 0.1% formic acid
How it was run: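 The mobile phases were water and acetonitrile, each with 0.1% formic acid, pumped at 100 μL/min through a Zorbax Extend-C18 column (2.1 × 50 mm, 1.8 μm). Pure standards were injected as mixtures of ~100 molecules and detected by a quadrupole time-of-flight mass spectrometer in positive and negative ionization mode. Retention time came from computationally picked adduct peaks, each inspected by hand.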

Row | RP-LC retention time [s] | Structure (SMILES)
1 | 805 | CCN1c2ccc(C)cc2C(=O)NC12CCN(C(=O)c1cccc(OC)c1)CC2
2 | 1010 | CC(C)(Oc1ccc(Cl)cc1)C(=O)OCn1nnc2ccccc2c1=O
3 | 1050 | COC(=O)C1CCN(S(=O)(=O)c2ccc(Cl)c(-c3nnc(-c4ccc(OC)cc4)o3)c2)CC1
4 | 1040 | CCC(c1cccs1)N1C(=O)[C@H]2CN(S(=O)(=O)c3cc(F)cc(F)c3)C[C@H]2C1=O (some centres undefined)
5 | 786 | CCN1c2ccc(C)cc2C(=O)NC12CCN(C(=O)c1ccccc1OC)CC2
6 | 898 | COc1cccc(NC(=O)CN2C(=O)CC(c3cccs3)=Nc3ccccc32)c1
7 | 858 | CC(C)n1ccc(C(=O)Nc2nnc(-c3cc(Cl)sc3Cl)o2)n1
8 | 1190 | Cc1ccc(C)c(-c2coc(-c3ccc(NC(=O)NCc4ccc(F)cc4)cc3)n2)c1
9 | 1090 | CCOC(=O)C1C(=O)C=C(c2ccco2)CC1c1ccccc1Cl (centres undefined)
10 | 867 | COCCCNC(=O)c1ccc(-c2nc3cccnc3n(C3CCCC3)c2=O)cc1
11 | 809 | CCN(C(=O)C(=O)c1c(C)[nH]c2ccccc12)c1ccccc1
12 | 841 | CCOC(=O)c1c(S(=O)(=O)N2CCC(C(=O)Nc3ccc(C)c(C)c3)CC2)c(C)n(C)c1C
13 | 563 | CC(C)c1nnc(C2CN(C)CC23CCN(Cc2cc(Cl)ccc2F)CC3)o1 (centres undefined)
14 | 1000 | O=C(Nc1cc(F)ccc1Cl)c1cnc(-c2ccccc2)nc1-c1ccncc1
15 | 724 | CCc1noc(-c2cnc3nc(C)ccc3c2NCc2ccccc2OC)n1
16 | 640 | COc1ccccc1NC(=O)Nc1nc(CC(=O)N2CCC(C(N)=O)CC2)cs1
17 | 968 | Cc1ccc(-c2noc(CCn3nc(-c4ccc5c(c4)OCO5)ccc3=O)n2)cc1
18 | 660 | COC(=O)c1c(-c2ccc(Cl)cc2)noc1NCCN1CCOCC1
19 | 1000 | O=c1ccc(-c2cccc(Cl)c2)nn1Cc1nc(-c2cccs2)no1
20 | 925 | CC(C)C(=O)N1CCc2c([nH]c3ccccc23)C12C(=O)Nc1ccc(Br)cc12 (centres undefined)
21 | 741 | O=C(NCC1CN(CC2CC2)CC12CCCCC2)Nc1cccc(Cl)c1 (centres undefined)
22 | 969 | Cc1ccccc1NC(=O)Nc1ccc2c(c1)CCN2S(=O)(=O)c1ccccc1

Row | RP-LC retention time [s] | Structure (SMILES)
23 | 1120 | COc1ccc(OCC2c3cc(OC)c(OC)cc3CCN2C(=O)c2cccc(Cl)c2)cc1 (centres undefined)
24 | 805 | CC(C)N1CCn2cc(S(=O)(=O)Nc3ccc(Cl)cc3)cc2C1=O
25 | 1110 | Cc1ccc2nc(-c3ccc(NC(=O)c4cnc5sccn5c4=O)cc3)sc2c1
26 | 684 | O=C(CN1CCC(c2nc(-c3cccs3)no2)CC1)NCc1ccc(F)cc1
27 | 977 | CC(C)NC(=O)N1CCCC(c2cccc(C(=O)NCCC3=CCCCC3)c2)C1 (centres undefined)
28 | 890 | Cc1ccc(Nc2c(-c3cccc(Cl)c3)nc3cc(C)ccn23)cc1
29 | 825 | C=Cc1ccc(Cn2cc(S(=O)(=O)N3CCOCC3)ccc2=O)cc1
30 | 879 | CCOC(=O)c1cc(C)nc2c1c(=O)n(Cc1ccccc1)c(=O)n2C
31 | 727 | Cc1nc2cc(N3CC(C(=O)N4CCN(c5ccccc5)CC4)CC3=O)ccc2o1 (centres undefined)
32 | 1090 | O=C(c1cc(F)ccc1F)N1CCc2nc(-c3ccc(Cl)cc3)ncc2C1
33 | 575 | Cc1[nH]c(C(=O)N2CCC(CC(=O)NCCCN3CCC(N4CCCCC4)CC3)CC2)c(C)c1C
34 | 859 | CCc1nnc(-c2nnc(N(CC)CC)c3ccccc23)o1
35 | 695 | COc1cccc(S(=O)(=O)NCc2cccnc2-c2ccc(C)cc2)c1
36 | 759 | COc1ccc(S(=O)(=O)N2CC3CN(C(=O)CC(C)C)CC(C2)O3)cc1
37 | 548 | O=C(Nc1nc2c(s1)CN(Cc1ccccc1)CC2)c1cccc(N2C(=O)CCC2=O)c1
38 | 931 | Cc1cc(N2CCC(NC(=O)Nc3cc(F)cc(F)c3)C2=O)ccc1F (centres undefined)
39 | 1150 | O=C(Cc1ccccc1Cl)Nc1ccc(-c2nc(-c3ccccc3)co2)cc1
40 | 842 | CN1CCCc2cc(CCNC(=O)C(=O)NCCC3=CCCCC3)ccc21
41 | 695 | O=C(Nc1ccccc1Cl)Nc1c(-c2ccc(F)cc2)nc2ccccn12
42 | 742 | CCCn1c(-c2cccc(C(=O)NCc3ccco3)c2)nc2cccnc21
43 | 744 | C=CCn1nc2ccc(S(=O)(=O)N3CCSCC3)cn2c1=O
44 | 789 | CN1C(=O)c2cccnc2Sc2cc(C(=O)N3CCc4ccccc43)ccc21

Row | RP-LC retention time [s] | Structure (SMILES)
45 | 694 | COc1cccc(C2=NC3(CCN(C(C)=O)CC3)NC(c3cc(Br)ccc3O)C2)c1 (centres undefined)
46 | 1050 | COc1ccccc1-c1nc(-c2cn(-c3cccc(Cl)c3)nn2)no1
47 | 772 | O=C(Nc1cc(-c2ccccn2)no1)c1ccc2c(c1)OCO2
48 | 854 | COc1cc([N+](=O)[O-])ccc1NC(=O)CCS(=O)(=O)c1ccc(Cl)cc1
49 | 860 | COc1cccc(-c2ccnc3nc(-c4ccccc4OC)nn23)c1
50 | 989 | O=S(=O)(NCCc1csc(-c2cccc(F)c2)n1)c1ccccc1Cl
51 | 1160 | CCc1ccc(N2CC(c3noc(-c4ccccc4C)n3)CC2=O)cc1 (centres undefined)
52 | 561 | CCC1CCCCN1CCCNC(=O)C1CCN(c2ccc(N3CCCCC3)nn2)CC1 (centres undefined)
53 | 652 | Cc1ccc(NC(=O)NCCn2c(-c3ccncc3)nc3cccnc32)c(Cl)c1
54 | 699 | CCCNC(=O)C1CCCN(c2ccc(=O)n(-c3cccc(F)c3)n2)C1 (centres undefined)
55 | 672 | Cc1cccc(S(=O)(=O)N2CCC(CN3CCCCCC3)CC2)c1
56 | 624 | Cc1nccn1Cc1nc(-c2ccccc2Cl)no1
57 | 1110 | CCOc1ccc(-c2nc(NC(=O)c3c(F)cccc3F)sc2C)cc1
58 | 702 | C=CCc1ccccc1OCCn1c(CN(C)C(=O)c2ccco2)nc2ccccc21
59 | 829 | CC1(C(=O)NCc2ccc(F)cc2)CCCN(C(=O)NCc2ccccc2)C1 (centres undefined)
60 | 1100 | Cc1cccc(N(C(=O)Nc2ccccc2C)C2=NCCC2)c1
61 | 694 | CC(NC(=O)c1ccco1)c1nc2ccccc2n1CC(=O)N(C)c1ccccc1 (centres undefined)
62 | 673 | CCn1cc(CN2CCC(N3C(=O)C4(CCCC4)C3c3ccccc3)CC2)cn1 (centres undefined)
63 | 902 | CCc1nc(OCC(=O)Nc2ccccc2C(=O)OC)c2ccccc2n1
64 | 657 | CCCNC(=O)C1CCCN(c2ccc(SCC(=O)Nc3ccc(F)cc3F)nn2)C1 (centres undefined)
65 | 913 | CCOc1ccc(NC(=O)Nc2nccn(-c3ccccc3)c2=O)cc1
66 | 759 | O=C(Nc1nc2c(s1)CCCC2C(=O)N1CCOCC1)c1ccc(Cl)cc1 (centres undefined)

Row | RP-LC retention time [s] | Structure (SMILES)
67 | 920 | Cc1ccc(C)c(N2CCN(c3ccnc(SCC(=O)NCCC(C)C)n3)CC2)c1
68 | 718 | CCCCc1ccc(NC(=O)CSc2ccc(-c3ccncc3)nn2)cc1
69 | 715 | O=S(=O)(c1cc(-c2nnc(C3CCCC3)o2)co1)N1CCN(C2CCCCC2)CC1
70 | 663 | O=C(Cc1cccs1)N1CCCC(c2nncn2-c2ccccc2)C1 (centres undefined)
71 | 653 | COC(=O)c1ccc(C2CC(=O)NC3=C2C(=O)CCC3)cc1 (centres undefined)
72 | 680 | Cn1c(N2CCCC(C(=O)NCc3ccc(F)cc3)C2)cc(=O)n(C)c1=O (centres undefined)
73 | 592 | COc1ccc(C)cc1NC(=O)N1CCc2nc[nH]c2C1
74 | 1330 | CCOC(=O)c1c(C)oc2nc(C)nc(NCc3cccc(Cl)c3)c12
75 | 595 | COc1ccc(C(=O)N[C@@H]2CCC[C@@H]2C(=O)N(C)C)cn1
76 | 694 | O=C(Nc1ccc2c(c1)C(=O)NCC2)Nc1ccccc1C(F)(F)F
77 | 928 | Cc1ccc(NS(=O)(=O)c2ccc(-c3c(C)noc3C)cc2)cc1
78 | 679 | COCCn1cc2c3c(cccc31)CN(C(=O)Nc1cc(Cl)ccc1C)CC2
79 | 831 | Cc1ccc(-c2noc(-c3cccc(S(=O)(=O)NCCN4CCC(C)CC4)c3)n2)cc1
80 | 796 | Cn1cccc1CN(C(=O)C1CCC1)C1CC1
81 | 856 | CCn1nc(C)n2cc(S(=O)(=O)NCc3ccc(F)cc3F)cc2c1=O
82 | 611 | COc1ccccc1OCC(=O)N(Cc1ccc(N(C)C)cc1)C1CCS(=O)(=O)C1 (centres undefined)
83 | 874 | CCC(C)NC(=O)c1ccc(Cn2nc(C)c(S(=O)(=O)N3CCCCC3)c2C)cc1 (centres undefined)
84 | 629 | Cc1ccc2[nH]c(=O)c(CCC(=O)NCCCN3CCc4ccccc4C3)cc2c1
85 | 590 | COC(=O)c1c(NCCO)c2cc(F)ccc2[nH]c1=O
86 | 658 | COc1ccccc1/C=C/c1nc(C#N)c(NCCCN(C)C)o1
87 | 803 | CCn1cnc(S(=O)(=O)N2CCCC(C(=O)NCc3ccc(C)cc3)C2)c1 (centres undefined)
88 | 958 | Cc1ccc2c(c1)N(S(C)(=O)=O)CCC(C(=O)Nc1ccc(F)cc1F)O2 (centres undefined)

Row | Structure (SMILES) | RP-LC retention time [s]
89 | CN1[C@@H]2CC(OC(=O)[C@H](CO)c3ccccc3)C[C@H]1[C@@H]1O[C@@H]12 (some centres undefined) | 619
